Experimental data taken from article PMC10449621, “Engineering cellular communication between light-activated synthetic cells and bacteria” (Nature Chemical Biology, 2023).
Several values for one entry are separate records, joined by “and”; a condition that tells them apart may be missing. Identical values can stand only once. Entries after “also recorded” stand apart in the source; their conditions may differ.

How the values were obtained:
[1] = tested on: BjaRWT (B0034|ATG) receiver cells (pSB1A3–bjaR–gfp); assay: BjaR receiver cell AHSL dose-response (gfp reporter, plate reader); format: cell-based, E. coli XL10-Gold
From the text: (§1) Next, we set out to establish a unidirectional communication pathway by reconstituting the BjaI and BjaR QS machinery, separately, within synthetic cells and E. coli, respectively. As a starting point, IV-HSL-responsive receiver cells were created by transforming E. coli XL10-Gold cells with a reporter plasmid, pSB1A3–bjaR–gfp[28]. This plasmid contained a bjaR gene under the control of a constitutively active J23100 promoter and a gfp gene under the control of a pBjaR promoter. The pBjaR promoter was formed by substituting the lux-box of the pLux promoter with the BjaR-binding site (Supplementary Fig. 10). […] Although this reporter plasmid had been characterized previously, gfp expression was initiated with C4-HSL rather than the cognate ligand, IV-HSL. Thus, we first evaluated the dose–response relationship between synthetic IV-HSL (synthesis described in Methods) and GFP production by BjaR receiver cells. The cells were grown in M9 minimal media to an optical density at 600 nm (OD600) = 0.05, then transferred to a 96-well plate containing IV-HSL and incubated at 37 °C, 800 r.p.m., for 4 h. […] To elucidate the root cause of the high background fluorescence, a BjaRKO variant of the reporter plasmid was constructed. […] Therefore, the high OFF-state was attributed to BjaR-mediated transcription activation in the absence of IV-HSL, rather than host transcription factors recognizing the pBjaR promoter, or transcription factor independent gfp expression.
(§2) The BjaR reporter plasmids were retransformed into E. coli XL10-Gold cells for each experiment. A single colony was used to inoculate 5 ml LB + Amp media and incubated at 37 °C, 225 r.p.m. overnight. Overnight cultures were diluted 1/250 or 1/500 in 5 ml M9 minimal media + Amp and incubated at 37 °C, 225 r.p.m. for 3 h and 45 min (until OD600 = ~0.075). Cultures were diluted down to OD600 = 0.05 with M9 minimal media + Amp, and 200 µl was added to wells of a 96-well plate containing 1 µl IV-HSL dissolved in DMSO or 1 µl BjaI CFPS reactions (IV-HSL concentrations obtained from serial dilution from 63.2 µM to 632 pM; final DMSO concentration = 0.5%). Cells were incubated at 37 °C, 800 r.p.m., in a thermomixer with a heated lid for 4 h. Fluorescence and OD600 were measured in a Tecan M1000 infinite plate reader (excitation, 488 nm; emission, 510 nm; bandwidth, 5 nm; gain, 101 and z position, 21,311 µm). The dose–response curves were fitted to the function indicated by Eq. (1), where a = maximal fluorescence output, b = basal fluorescence output, X = concentration of AHSL, GFP = fluorescence at the given condition, EC50 = AHSL at 50% maximal fluorescence output and h = hill coefficient. EC50 and h were derived using the nonlinear regression model based on Eq. (1), in MATLAB. A summary of the dose–response data is available in Supplementary Table 1.1 GFP=b+a−b/1+10^logEC50−X×h

[2] = tested on: BjaRKO receiver cells (pSB1A3–bjaRKO–gfp); assay: as above; format: cell-based, E. coli XL10-Gold
From the text: as §1, §2

For `CC(C)CC(=O)N[C@H]1CCOC1=O` [IV-HSL, N-isovaleryl-L-homoserine lactone], the “IV-HSL concentration at which gfp expression saturated” value ([1]; 4 h, 37 °C) was ~ 100 nM, the “lowest IV-HSL concentration giving increased gfp expression” value ([1]; 4 h, 37 °C) was 100 pM and the EC50 ([1]; Escherichia coli, IV-HSL-activated gfp expression, M9 minimal media, 37 °C, 4 h) was 1 ± 0.11 nM. For the same molecule, the GFP ([1]; Log([ASHL]) -6.5) was 5520 and 5263 and 4853, the Mean normalised fluorescence ([1]; Log([ASHL]) -6.5) was 51540.5 and the Normalised fluorescence ([1]; Log([ASHL]) -6.5) was 52896 and 49381.5 and 52343.9. For the same molecule, the GFP ([1]; Log([ASHL]) -7) was 4847 and 5318 and 4599, the Mean normalised fluorescence ([1]; Log([ASHL]) -7) was 48761.2 and the Normalised fluorescence ([1]; Log([ASHL]) -7) was 46176.2 and 48745.4 and 51362.1. The GFP ([1]; Log([ASHL]) -7.5) was 4806 and 4967 and 4256, the Mean normalised fluorescence ([1]; Log([ASHL]) -7.5) was 50366.9 and the Normalised fluorescence ([1]; Log([ASHL]) -7.5) was 49622.2 and 48407.5 and 53071.1. For the same molecule, the GFP ([1]; Log([ASHL]) -8) was 4739 and 4412 and 4755, the Mean normalised fluorescence ([1]; Log([ASHL]) -8) was 51222.6 and the Normalised fluorescence ([1]; Log([ASHL]) -8) was 48553.6 and 53423.6 and 51690.6. The GFP ([1]; Log([ASHL]) -8.5) was 4235 and 3971 and 4223, the Mean normalised fluorescence ([1]; Log([ASHL]) -8.5) was 46308.3 and the Normalised fluorescence ([1]; Log([ASHL]) -8.5) was 43174.3 and 50090 and 45660.8. The GFP ([1]; Log([ASHL]) -9) was 3046 and 2749 and 2957, the Mean normalised fluorescence ([1]; Log([ASHL]) -9) was 32989.1 and the Normalised fluorescence ([1]; Log([ASHL]) -9) was 31098.3 and 35762 and 32107. For the same molecule, the GFP ([1]; Log([ASHL]) -9.5) was 2089 and 1773 and 1816, the Mean normalised fluorescence ([1]; Log([ASHL]) -9.5) was 20544.4 and the Normalised fluorescence ([1]; Log([ASHL]) -9.5) was 19459.5 and 23021.7 and 19152. The GFP ([1]; Log([ASHL]) -10) was 1495 and 1301 and 1477, the Mean normalised fluorescence ([1]; Log([ASHL]) -10) was 15546.1 and the Normalised fluorescence ([1]; Log([ASHL]) -10) was 14827.9 and 16425.7 and 15384.6. The GFP ([1]; Log([ASHL]) -10.5) was 1424 and 1254 and 1414, the Mean normalised fluorescence ([1]; Log([ASHL]) -10.5) was 15128.3 and the Normalised fluorescence ([1]; Log([ASHL]) -10.5) was 14176.3 and 15945.9 and 15262.6. For the same molecule, the GFP ([1]; Log([ASHL]) -11) was 1414 and 1258 and 1391, the Mean normalised fluorescence ([1]; Log([ASHL]) -11) was 15383.1 and the Normalised fluorescence ([1]; Log([ASHL]) -11) was 14419.4 and 15744.7 and 15985.4. For the same molecule, the GFP ([1]; Log([ASHL]) -11.5) was 1447 and 1104 and 1274, the Mean normalised fluorescence ([1]; Log([ASHL]) -11.5) was 15262.1 and the Normalised fluorescence ([1]; Log([ASHL]) -11.5) was 15049.3 and 14629.6 and 16107.4. For the same molecule, the “gfp expression in presence of IV-HSL” value ([2]; BjaR knocked out) was “completely ablated gfp expression; also recorded: minimal gfp expression”, the GFP ([2]; Log([ASHL]) -6.5) was 184 and 176 and 173 and the Mean normalised fluorescence ([2]; Log([ASHL]) -6.5) was 361.621. For the same molecule, the Normalised fluorescence ([2]; Log([ASHL]) -6.5) was 365.437 and 317.314 and 402.112, the GFP ([2]; Log([ASHL]) -7) was 173 and 168 and 165 and the Mean normalised fluorescence ([2]; Log([ASHL]) -7) was 321.731. The Normalised fluorescence ([2]; Log([ASHL]) -7) was 319.68 and 293.754 and 351.759, the GFP ([2]; Log([ASHL]) -7.5) was 177 and 169 and 166 and the Mean normalised fluorescence ([2]; Log([ASHL]) -7.5) was 323.42. The Normalised fluorescence ([2]; Log([ASHL]) -7.5) was 331.126 and 287.856 and 351.279, the GFP ([2]; Log([ASHL]) -8) was 168 and 166 and 175 and the Mean normalised fluorescence ([2]; Log([ASHL]) -8) was 329.861. For the same molecule, the Normalised fluorescence ([2]; Log([ASHL]) -8) was 292.758 and 367.412 and 329.412, the GFP ([2]; Log([ASHL]) -8.5) was 168 and 165 and 177 and the Mean normalised fluorescence ([2]; Log([ASHL]) -8.5) was 326.491. The Normalised fluorescence ([2]; Log([ASHL]) -8.5) was 291.054 and 362.261 and 326.158, the GFP ([2]; Log([ASHL]) -9) was 165 and 164 and 177 and the Mean normalised fluorescence ([2]; Log([ASHL]) -9) was 335.395. The Normalised fluorescence ([2]; Log([ASHL]) -9) was 295.725 and 362.027 and 348.432, the GFP ([2]; Log([ASHL]) -9.5) was 164 and 162 and 172 and the Mean normalised fluorescence ([2]; Log([ASHL]) -9.5) was 325.095. For the same molecule, the Normalised fluorescence ([2]; Log([ASHL]) -9.5) was 293.548 and 346.048 and 335.689, the GFP ([2]; Log([ASHL]) -10) was 163 and 162 and 171 and the Mean normalised fluorescence ([2]; Log([ASHL]) -10) was 332.521. The Normalised fluorescence ([2]; Log([ASHL]) -10) was 290.698 and 371.151 and 335.714, the GFP ([2]; Log([ASHL]) -10.5) was 166 and 164 and 173 and the Mean normalised fluorescence ([2]; Log([ASHL]) -10.5) was 338.795. The Normalised fluorescence ([2]; Log([ASHL]) -10.5) was 301.85 and 369.458 and 345.075, the GFP ([2]; Log([ASHL]) -11) was 163 and 161 and 171 and the Mean normalised fluorescence ([2]; Log([ASHL]) -11) was 330.063. The Normalised fluorescence ([2]; Log([ASHL]) -11) was 296.053 and 361.746 and 332.39, the GFP ([2]; Log([ASHL]) -11.5) was 165 and 174 and 162 and the Mean normalised fluorescence ([2]; Log([ASHL]) -11.5) was 344.578. The Normalised fluorescence ([2]; Log([ASHL]) -11.5) was 307.076 and 352.984 and 373.673.
